Results published in patent US20070248630A1, “PHARMACEUTICAL FORMULATIONS FOR IONTOPHORETIC METHOTREXATE DELIVERY” (priority 2006, published 2007).

Columns and labels:
[1] = In vitro iontophoretic delivery of MTX through hairless (nude) rat skin, Franz diffusion cells; type: in vitro ADME
Method: The delivery of MTX under 30 mins of iontophoresis (0.4 mA/cm^2) was studied at buffer strengths 0.05-0.5 M and drug concentrations 10-20 mg/ml. The effect of current density and time of application on the delivery of MTX is studied by optimizing the full-factorial design. The current density (X1) and time of application (X2) are the independent factors chosen for the factorial design with 4 and 5 levels, respectively in the range of 0.05-0.5 mA (X1) and 10-120 mins (X2).
In vitro iontophoretic experiments (n≧3) were performed using freshly excised hairless rat skin mounted on vertical Franz diffusion cells with stratum corneum facing towards the donor chamber. The donor compartment contained 15 mg/ml of MTX in phosphate buffer of pH 7.4 (0.25 M) and the receptor compartment contained phosphate buffer of pH 7.4 (0.25 M) with 75 mM NaCl.
A silver-silver chloride electrode (cathode) was placed in the donor chamber and silver wire (anode) was placed in the receptor compartment. Samples were taken at periodic intervals and were analyzed by HPLC, using YMC RP 18 column. Mobile Phase was composed of monobasic sodium phosphate (10%) and Tris HCl buffer (90%). Flow rate was 1.5 ml/min and detection wavelength was 303 nm.

[2] = cited from earlier work

**Q.** Which “delivery at 15 versus 20 mg/ml” value ([1]; 0.25 M buffer strength, 30 mins iontophoresis 0.4 mA/cm^2) does the source give for CN(Cc1cnc2nc(N)nc(N)c2n1)c1ccc(C(=O)N[C@@H](CCC(=O)O)C(=O)O)cc1 [MTX, Methotrexate] here?
**A.** Its value is “not statistically different”.

**Q.** What about the “amount of drug delivered, effect of MTX concentration 10 to 15 mg/ml” value ([1]; 0.25 M buffer strength, 30 mins iontophoresis 0.4 mA/cm^2, FIG. 2) of the same compound?
**A.** Its value is “increased”.

**Q.** What about the “cumulative amount delivered, increase in current density from 0.05 to 0.5 mA” value ([1]; 10 min iontophoresis) of the same compound?
**A.** Its value is “did not show a statistically significant increase”.

**Q.** What about the “cumulative amount of MTX delivered across hairless rat skin, effect of buffer ionic strength” value ([1]; 30 mins iontophoresis 0.4 mA/cm^2, buffer strengths 0.05-0.5 M, FIG. 1) of the same compound?
**A.** The value was “increased with decrease in ionic strength of the buffer”.

**Q.** And the “delivery, increase in time of application from 10-120 mins” value ([1]; at 0.05 mA)?
**A.** Its value is “did not show any enhanced delivery”.

**Q.** What about the maximal flux ([1]; buffer strength 0.25 M, drug concentration 15 mg/ml, across hairless rat skin) of the same compound?
**A.** Its maximal flux is “about 0.6 μg/cm^2-hr”.

**Q.** What about the “cumulative amount of drug delivered versus model prediction” value ([1]; current density 0.4 mA/cm^2, ITP for 30 mins) of the same compound?
**A.** The value was “in between the lower and upper 95% confidence level”.

**Q.** And the “cumulative amount of MTX delivered, effect of increase in current density and time of application” value ([1]; factorial design, 0.05-0.5 mA, 10-120 mins, 15 mg/ml MTX, phosphate buffer pH 7.4 0.25 M, FIG. 3, 4)?
**A.** The value was “also increased”.

**Q.** What about the “charge at physiological pH” value [2] of the same compound?
**A.** Its value is “negatively charged”.
